Data published in US20250035616A1, “Organoid Compositions” (SHIMADZU CORPORATION, priority 2023, published 2025).

Key:
[1] = system: HYDROX-cultured human liver organoid composition
Description: In this Example, the human liver organoid produced in Reference Example 1 was cultured with HYDROX (FIG. 1A) to produce a human liver organoid composition including the HYDROX, and its liver function was identified. The Matrigel-cultured human liver organoid produced in Reference Example 1 was treated with TrypLE Select so that the Matrigel was degraded. The resultant cell cluster was suspended in the medium for a human liver organoid, and was seeded on a HYDROX plate at 300 μL/well, followed by three-dimensional culture (HYDROX culture). The cell cluster was reseeded on a new HYDROX plate every 7 days. The HYDROX plate was produced as described below. In a 48-well adhesive plate, a HYDROX raw material polymer (Psar-PLLA) was mixed with 95% ethanol (Nacalai tesque) at a concentration of 10 mg/mL, and the mixture was warmed at 70° C. for 10 minutes. The dissolved polymer solution was dropped into a culture plate, and was dried for 8 hours or more to produce the human liver organoid composition including the HYDROX. In this Example and the following Examples, the human liver organoid composition including the HYDROX is referred to as “HYDROX-cultured human liver organoid composition.”
(§1) Further, at the initial stage of the development of a new drug, the safety of the drug needs to be accurately evaluated by a hepatotoxicity evaluation test. Accordingly, an investigation was made on the potential of the HYDROX-cultured human liver organoid composition to be applied to the hepatotoxicity evaluation test.

primary human liver cell = system: primary human liver cell
Description: In this Reference Example, 1 lot (lot name: HC4-24, XenoTech) of cultured primary human liver cells were cultured. The cells were rapidly thawed in a shaking water bath at 37° C., and were suspended in OptiTHAW Hepatocyte Isolation Kit (XenoTech) that had been preheated, followed by centrifugation at 100 g and room temperature for 5 minutes. The liver cells were suspended in HCM (Lonza) so that their density became 2.5×10^5 cells/cm^2, followed by seeding on 48-well Corning^RBioCoat™ Collagen I-coated Microplates (Corning). After the cells had been cultured for 48 hours, various tests were performed.
as §1

SMILES | cell viability [1] | cell viability (primary human liver cell)
Cc1c(C)c2c(c(C)c1O)CCC(C)(COc1ccc(CC3SC(=O)NC3=O)cc1)O2 (centres unmarked) [Troglitazone] | the viability reduced in accordance with the concentration of each of the drugs | the viability reduced in accordance with the concentration of each of the drugs
CC(=O)Nc1ccc(O)cc1 [acetaminophen] | the viability reduced in accordance with the concentration of each of the drugs | 
CCCCc1oc2ccccc2c1C(=O)c1cc(I)c(OCCN(CC)CC)c(I)c1 [amiodarone] | the viability reduced in accordance with the concentration of each of the drugs | the viability reduced in accordance with the concentration of each of the drugs
